Converted amounts (≈) assume the structure as drawn. Non-standard residues stand in square brackets, D forms with d. Residues, ends and D or L forms follow the SMILES beside them. ξ: configuration not given here. *: point of attachment. ξF = NC(Cc1ccccc1)C(=O)O; Cbz = O=C(OCc1ccccc1)*; CH2Cl = ClC*
What was measured:
human proteasome = human proteasome (Homo sapiens, UniProt P28074); assay: cell-based
M. tuberculosis H37Rv [1] = assay: Turbidity-based growth inhibition (MIC50), M. tuberculosis H37Rv; type: cell-based; conditions: Mycobacterium tuberculosis, 120 h, 50% growth inhibition, 5 days, OD600
ClpP1P2 = ClpP1P2 (Mycobacterium bovis, UniProt P0A527+P63784); assay: cell-based; type: cell-based, M. bovis BCG; conditions: for IC50: 24 h, read-out: Bacterial Clp IC50
M. tuberculosis H37Rv [2] = assay: Minimum bactericidal concentration (MBC99) by CFU enumeration; type: cell-based; conditions: for MBC: Mycobacterium tuberculosis, H37RV, 120 h, concentration killing 99% of bacteria (100-fold kill), 5 days treatment
bacterial proteasome = bacterial proteasome (Mycobacterium bovis, UniProt A1KKF3); assay: cell-based; set-up: species or system M. bovis BCG
M. bovis BCG = assay: organism not typed; type: cell-based; conditions: 120 h, read-out: M. bovis MIC50
in vitro = conditions: human

bacterial proteasome, sequence (A1KKF3 whole entry, looked up): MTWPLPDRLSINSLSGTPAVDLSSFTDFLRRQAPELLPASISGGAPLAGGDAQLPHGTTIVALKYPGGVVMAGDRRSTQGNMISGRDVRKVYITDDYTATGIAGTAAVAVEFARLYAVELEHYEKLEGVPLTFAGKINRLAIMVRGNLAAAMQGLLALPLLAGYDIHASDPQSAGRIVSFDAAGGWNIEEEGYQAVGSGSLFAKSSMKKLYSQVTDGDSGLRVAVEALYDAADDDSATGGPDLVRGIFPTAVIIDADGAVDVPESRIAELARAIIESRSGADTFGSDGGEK

Compound | IC50 (human proteasome) [µM] | MIC50 (M. tuberculosis H37Rv [1]) [µM] | IC50 (ClpP1P2) [µM] | MBC (M. tuberculosis H37Rv [2]) [µM] | IC50 (bacterial proteasome) [µM] | MIC50 (M. bovis BCG) [µM] | loss of potency against ClpP1P2 compared to Bortezomib (ClpP1P2; 25 vs. 1.6 μM) [fold] | selectivity ratio (in vitro) | reduction in bactericidal potency against M. tuberculosis (M. tuberculosis H37Rv [2]; compared to Bortezomib (MBC99))
CC(C)C[C@H](NC(=O)CNC(=O)OCc1ccccc1)C(=O)NC(Cc1ccccc1)C(=O)CCl (stereo partly drawn) [Z-GLF-CMK, Carboxybenzyl-glycine-leucine-phenylalanine-CMK] (Cbz-Gly-Leu-[ξF]-CH2Cl) | > 500 | 20 (≈ 10 µg/mL) | 25 | 200 (≈ 100 µg/mL) | 35 | 20 (≈ 10 µg/mL) | – | – | –
O=C(CNC(=O)OCc1ccccc1)NCC(=O)NC(Cc1ccccc1)C(=O)CCl (stereo not drawn) [Z-GGF-CMK, Carboxybenzyl-glycine-glycine-phenylalanine-CMK] (Cbz-Gly-Gly-[ξF]-CH2Cl) | > 500 | 30 (≈ 13.4 µg/mL) | 50 | – | 50 | 30 (≈ 13.4 µg/mL) | – | – | –
CC(C)C[C@H](NC(=O)[C@H](Cc1ccccc1)NC(=O)c1cnccn1)B(O)O [Pyr-FL-BA, Pyrazine-Phenylalanine-Leucine-Boronic acid] | – | 4 (≈ 1.54 µg/mL) | 1.6 | 50 (≈ 19.2 µg/mL) | 0.8 | 0.8 (≈ 0.307 µg/mL) | – | – | –
CC(C)C[C@H](NC(=O)[C@H](Cc1ccccc1)NC(=O)c1cnccn1)C(=O)CCl [Pyr-FL-CMK, N-((S)-1-(((S)-1-chloro-5-methyl-2-oxohexan-3-yl)amino)-1-oxo-3-phenylpropan-2-yl)pyrazine-2-carboxamide] | > 500 | 25 (≈ 10.4 µg/mL) | 25 | 100 (≈ 41.7 µg/mL) | 25 | 20 (≈ 8.34 µg/mL) | ~15 | ≥ 20 | two-fold

Reference: PMC5406460 (Frontiers in Microbiology, 2017)
